Test results from patent US6444698B1, “Application of 2,3,7,8-tetrachlorodibenzo-para-dioxin (TCDD) as a promoter blocker of cancer” (priority 1998, dated 2002).
“And” between values parts separate entries of the source, which are not always exact repeats. Equal values may be shown once. “Also recorded” adds a separate entry of the source. Read-outs that look alike come from different tables or passages of the source.

Experiments:
[1] = tested on: Operation Ranch Hand (ORH) airmen; test: Operation Ranch Hand (ORH) cancer incidence and body burden analysis; format: in vivo, human
From the text: (§1) In addition to published and unpublished epidemiology data from the NIOSH Report (Fingerhut et al. (1990)), additional NIOSH Life Table records (LT20406 (1990)), and the Steenland et al. article (1999), the Inventor relies on Bertazzi et al.'s (Epidemiol. 4, 398-406 (1993)) cancer incidence data presentation on a residential population of men and women exposed to the lowest levels of TCDD as a result of a chemical plant explosion near Seveso, Italy, and the Inventor's own analysis of cancer incidence and body burden data in the Operation Ranch Hand (ORH) airmen exposed to TCDD as a result of service in Southeast Asia during the Vietnam War. None of the NIOSH and Seveso papers cited above claim that TCDD acts as an anti-carcinogen. The Air Force Scientists charged with developing the ORH Study also fail to observe TCDD as an anti-carcinogen. Ketchum et al. Amer. J. Epidem. 149, 630-639 (1999).
The ORH cancer incidence data collected over 30 years has particular value, because one may compute the cancer incidence effects associated with military service in Southeast Asia in internal cohorts unexposed or virtually unexposed to TCDD and distinguish them from an internal cohort of airmen exposed to TCDD within a well calibrated body burden range.
Kayajanian, Ecotox. Environ. Safety 46, 103-109 (2000); and Kayajanian, Ecotox. Environ. Safety (In press, 2001).
Kayajanian (2000)(In press, 2001). One standout cancer reduction is associated with an even lower TCDD body burden level: prostate cancer in black veterans is highest at non detect TCDD levels of less than 1.25 ppt; it is reduced at body burdens between 1.25 and 4.0 ppt, and lowest above 4.00 ppt, The pattern of prostate cancer reduction in black men is significant. Kayajanian, (In press, 2001).

[2] = tested on: industrial cohorts; settings: cited from earlier work
[3] = biological target: T1, aryl hydrocarbon (Ah) receptor (Homo sapiens, UniProt P35869); settings: cited from earlier work
T1 sequence (P35869 11-848): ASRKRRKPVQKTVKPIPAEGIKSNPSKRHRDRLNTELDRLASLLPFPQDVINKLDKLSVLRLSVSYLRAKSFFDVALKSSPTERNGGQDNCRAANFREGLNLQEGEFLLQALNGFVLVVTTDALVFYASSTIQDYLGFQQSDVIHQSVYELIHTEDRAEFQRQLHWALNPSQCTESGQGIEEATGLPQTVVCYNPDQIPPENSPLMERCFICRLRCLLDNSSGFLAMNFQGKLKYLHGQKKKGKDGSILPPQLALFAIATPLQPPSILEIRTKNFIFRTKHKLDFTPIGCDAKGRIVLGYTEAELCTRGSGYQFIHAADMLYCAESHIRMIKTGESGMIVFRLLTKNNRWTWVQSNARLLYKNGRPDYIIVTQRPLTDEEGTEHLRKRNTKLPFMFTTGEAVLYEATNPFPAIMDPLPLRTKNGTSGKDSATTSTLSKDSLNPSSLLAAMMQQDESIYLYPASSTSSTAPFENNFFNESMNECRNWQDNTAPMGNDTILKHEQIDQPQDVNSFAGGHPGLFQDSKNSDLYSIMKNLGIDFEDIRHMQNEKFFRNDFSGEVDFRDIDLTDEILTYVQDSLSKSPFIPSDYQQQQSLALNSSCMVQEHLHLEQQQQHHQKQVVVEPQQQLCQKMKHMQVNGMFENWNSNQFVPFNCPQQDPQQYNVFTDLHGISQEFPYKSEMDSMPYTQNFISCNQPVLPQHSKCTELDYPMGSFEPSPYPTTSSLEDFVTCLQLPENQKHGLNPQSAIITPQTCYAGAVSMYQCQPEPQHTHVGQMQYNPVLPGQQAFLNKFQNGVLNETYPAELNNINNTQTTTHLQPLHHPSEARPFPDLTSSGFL

[4] = tested on: male workers in 12 chemical plants; settings: most highly TCDD-exposed members of the NIOSH workforce (Steenland 1999); cited from earlier work
[5] = tested on: male workers in 12 chemical plants; test: NIOSH Study of chemical plant workers, cancer occurrence; format: in vivo, human
From the text: In 1994, EPA sought to regulate TCDD as a “probable” human carcinogen, using a population of 5280 male workers in 12 chemical plants, each of whom was exposed to contaminant levels of TCDD and some mix of 1000 unidentified other chemicals. Fingerhut et al. (1990). Fingerhut compared the cancer incidence in the plant workers to that expected in a national reference, and EPA concluded all the cancer incidence increases noted by Fingerhut were caused by the TCDD exposure and none were caused by exposures to other chemicals. U.S. EPA (1994). EPA's Science Advisory Board rejected the Agency's TCDD cancer claims. U.S. EPA Science Advisory Board, Review of Draft Documents: A Second Look at Dioxin (1995).
(§2) The Seveso Study (Bertazzi et al. (1993)) is a report on cancer incidence and cancer incidence changes in the first ten years following the population's exposure to TCDD and other chemicals. Over the course of these ten years, one expects not to register the carcinogenic effects of any chemicals acting as cancer initiators and to include any effects attributable to TCDD discernible within ten years, like promotion or promotion blocking. The first ten years of the lifetime NIOSH Study offer the same advantage. Fingerhut et al. (1990).
One of the plants (Midland) in the NIOSH Report has workers who reproduce the signature of individual cancer reductions and increases the Inventor observed in Seveso low exposure men: reductions in lung, primary liver (measured in Midland as liver) and multiple myeloma, which collectively are significant; and increases in STS and NHL, which individually are significant. The Seveso signature pattern of cancer incidence changes is present even though workers in Midland and the other 11 chemical plants were exposed to confounding chemicals which might have masked or diminished the extent of pattern confirmation. LT20406 (1990). From Steenland et al. (1999), one can estimate the TCDD level associated with the Midland plant wotkers as 105 ppt above background, or between 105 and 115 ppt.
The specific and total cancer reductions noted in the NIOSH, Seveso, and ORH studies can be tied to specific dioxin body burden levels measured in serum. Reading Steenland et al. (1999) and Fingerhut et al. (1990) together, one can estimate a range from 3 to 10,000 ppt extra TCDD in serum in eight of the 12 NIOSH plante worker cohorts. […] Midland workers, who show the Seveso pattern of reductions of specific cancers, had 105 ppt TCDD above background, which is assumed to be 0 to 10 ppt.

[6] = tested on: residential population of men and women; test: Seveso Study, cancer incidence in residential population exposed to TCDD; format: in vivo, human
From the text: as §1, §2
For a limited number of narrow cancer classifications, Bertazzi et al. (1993) has provided cancer incidence data stratified in five year intervals both for publication and as a courtesy to the Inventor. Kayajanian, Ecotox. Environ. Safety 42, 103-109 (1999). Fingerhut et al. (1990) also published five year cancer occurrence observations for total cancers. […] This pattern of cancer incidence reduction in the second five year interval is what one would expect if TCDD acted as a promoter blocker of the enumerated individual cancer classifications and a sufficient number of other cancers to generate a significant total cancer incidence reduction.
The significant individual and total cancer reductions the Inventor noted from the Seveso data, whether stratified or not (Bertazzi et al. (1993)) are associated with median levels of 48 ppt TCDD. Bertazzi et al., Amer. J. Epidem. 153, 1031-1043 (2001). Measurement of TCDD levels include both men and women.

[7] = tested on: Sprague-Dawley rats; settings: cited from earlier work
[8] = tested on: residential population of men and women; settings: cited from earlier work
[9] = tested on: Sprague-Dawley rats; test: Kociba lifetime rodent feeding study; format: in vivo, rat
Description: EPA has sought to regulate dioxin as a carcinogen on three occassions. […] Kociba et al., Toxicol. Appl. Pharmacol. 46, 279-303 (1978). […] Kociba et al. (1978); U.S. EPA (1985); and U.S. EPA (1994).
Kociba et al, (1978); U.S. EPA (1985 and 1994).
To develop the Invention further, cross species comparisons are performed when no second epidemiology report is available to test the effect of TCDD exposure on women. […] Kayajanian, Regul. Toxicol. Pharmacol. 26, 134-137 (1997).

[10] = tested on: Operation Ranch Hand (ORH) airmen; settings: cited from earlier work
[11] = tritiated TCDD ingested in corn oil, volunteer; cited from earlier work
[12] = tested on: mouse skin; settings: cited from earlier work
[13] = low exposure cohorts, second five years compared to first five years

**Q.** For `Clc1cc2c(cc1Cl)Oc1cc(Cl)c(Cl)cc1O2` [TCDD, 2,3,7,8-tetrachlorodibenzo-para-dioxin], which “total cancers other than skin” value ([1]; all airmen, 50 ppt (mean body burden 50-100 ppt)) is on record?
**A.** significant cancer incidence reductions; also recorded: significant non skin cancer reductions

**Q.** And the “prostate cancer in black veterans” value ([1]; body burdens above 4.00 ppt)?
**A.** lowest

**Q.** What about the “prostate cancer in black veterans” value ([1]; body burdens between 1.25 and 4.0 ppt) of the same molecule?
**A.** reduced

**Q.** What about the skin cancer incidence ([1]; non black airmen, 100 ppt (mean body burden 50-100 ppt)) of the same molecule?
**A.** significant cancer incidence reductions; also recorded: significant skin cancer reductions

**Q.** What about the “prostate cancer in black veterans” value ([1]; non detect TCDD levels of less than 1.25 ppt) of the same molecule?
**A.** highest

**Q.** And the “mean TCDD body burden levels at which significant cancer incidence reductions are observed” value ([1]; skin and total cancers other than skin)?
**A.** 50-100 ppt

**Q.** And the total cancer mortality ([2]; most highly TCDD-exposed German herbicide chemical plant workers (Flesch-Janys 1995))?
**A.** significant increase

**Q.** And the total cancers ([2]; separate studies of different industrial cohorts (Zober 1990, Manz 1991))?
**A.** total cancer increase

**Q.** What about the “binding to the aryl hydrocarbon (Ah) receptor” value [3] of the same molecule?
**A.** preferentially binds

**Q.** And the total cancers [4]?
**A.** significant increase

**Q.** And the “lung, primary liver (measured as liver) and multiple myeloma cancers” value ([5]; Midland plant workers, collectively significant)?
**A.** reductions

**Q.** What about the “STS and NHL” value ([5]; Midland plant workers, individually significant) of the same molecule?
**A.** increases

**Q.** And the “TCDD level associated with the Midland plant workers” value ([5]; including background)?
**A.** 105-115 ppt

**Q.** What about the “incidence of total cancers in men” value ([5]; years 6-10 compared to years 1-5, Fingerhut Report) of the same molecule?
**A.** significantly less

**Q.** And the “lung and multiple myeloma cancer incidence in men” value ([6]; compared to the outside reference over the entire ten year period)?
**A.** significantly or notably reduced

**Q.** What about the “incidence of soft tissue sarcoma (STS) and non Hodgkins lymphoma (NHL)” value ([6]; low exposure adults (men plus women), second five years compared to first five years) of the same molecule?
**A.** significantly increased

**Q.** What about the “corpus uteri cancer incidence in women” value [6, 13] of the same molecule?
**A.** significant cancer incidence reduction

**Q.** And the “primary liver cancer incidence in men” value [6, 13]?
**A.** significant cancer incidence reduction

**Q.** What about the “total cancer incidence in women” value [6, 13] of the same molecule?
**A.** significant cancer incidence reduction

**Q.** And the “percentagewise cancer incidence reduction, men versus women” value ([6]; lowest study exposure)?
**A.** to a greater extent in men than in women

**Q.** And the hepatocarcinogenicity ([7]; body burden level 25,400 ppt (Safe citing Kociba))?
**A.** very hepatocarcinogenic

**Q.** And the liver cancer incidence ([7]; high dose female Sprague-Dawley rats fed TCDD over a lifetime)?
**A.** significantly elevated

**Q.** And the “mammary and uterine cancers” value ([7]; high dose female, body burden level 25,400 ppt (Safe citing Kociba))?
**A.** anti-carcinogenic

**Q.** And the total cancers ([8]; Italian men from Seveso, pooled two highest exposed cohorts, over twenty years (Bertazzi 2001))?
**A.** significant increase

**Q.** What about the “median TCDD level associated with significant individual and total cancer reductions” value ([8]; men and women) of the same molecule?
**A.** 48 ppt and 48.0 ppt

**Q.** And the total cancers ([9]; each sex, low and mid dose TCDD levels of 540 and 5100 ppt in liver tissue)?
**A.** significant reduction

**Q.** And the total cancers ([9]; low dose female rats, p<0.01)?
**A.** significantly reduced

**Q.** And the uterine cancers ([9]; low dose female rats, p<0.06)?
**A.** significantly reduced

**Q.** And the liver cancer incidence ([9]; low dose, each sex, significant in the males)?
**A.** reduction

**Q.** And the “percentagewise cancer incidence reduction, male versus female rats” value ([9]; lowest study exposure)?
**A.** in male rats to a greater extent than in female rats

**Q.** What about the “cancers at multiple tissue sites and overall” value ([9]; male and female rats, TCDD body burdens of 540 and 5100 ppt) of the same molecule?
**A.** reduction

**Q.** What about the “mean TCDD level of airmen when they left Vietnam” value [10] of the same molecule?
**A.** 195.7 ppt

**Q.** And the label retention [11]?
**A.** 87%

**Q.** What about the “artificially elevated skin cancer incidence” value ([12]; TCDD administered simultaneously with or a day after the skin cancer initiation step) of the same molecule?
**A.** No reduction

**Q.** What about the “artificially elevated skin cancer incidence” value ([12]; very high single dose administered one to five days prior to initiation, several mice strains) of the same molecule?
**A.** significantly reduces
